In patent US5639884A, “Arylidene-heterocyclic derivatives and process for their preparation” (Farmitalia Carlo Erba S.r.l., priority 1991, dated 1997):

The compounds below were run against p45 v-abl tyrosine kinase (assay: Exogenous Substrate Kinase Assay: p45 v-abl kinase inhibition). Conditions: (Val^5)-Angiotensin II phosphorylation; 40 ng abl-kinase; peptide 2 mM, ATP 50 μM; pH 8.0, 30° C.; triplicate determinations.
Type: biochemical, Abelson murine leukemia virus
Text: Tyrosine kinase purification. The enzyme used in our test was the p45 v-abl tyrosine kinase which represents the catalytic domaine of the Abelson tyrosine kinase (isolated from the Abelson murine leukemia virus). The p45 v-abl kinase was produced and isolated as described by Wang et al. in J. Biol. Chem. 260, 64 (1985) and by Ferguson et al. in J. Biol. Chem. 260, 3652 (1985) and in Biochem. J. 257, 321 (1989).
Exogenous Substrate Kinase Assay. (Val^5)-Angiotensin II phosphorylation was performed by incubation with 40 ng of purified abl-kinase and (γ-^32 P)-ATP, in 50 μl of buffer containing Tris-HCl 25 mM, pH 8.0, MgCl2 10 mM and dithiothreitol 0.1 mM (kinase buffer). The reaction mixture was incubated for the indicated time at 30° C. and the reaction stopped by adding 50 μl of 5% trichloroacetic acid. After a brief incubation on ice, tubes were centrifuged. The supernatants were spotted on phosphocellulose paper squares (Whatman P-81) and washed extensively in acetic acid. The radioactivity bound to dried phosphocellulose squares was measured in a liquid scintillation counter. IC50 values were calculated from triplicate determinations of each experimental point. Each inhibitor was tested at concentrations ranging from […] in the presence of fixed concentrations of peptide (2 mM) and ATP (50 μM).

SMILES | IC50
O=C1NC(=O)c2ccccc2C1=Cc1ccnc2ccccc12 [4-(4'-quinolyl)methylenehomophthalimide, (E,Z) -4-(4'-quinolyl)-methylenehomophthalimide] | 15 µM
O=S1(=O)Nc2ccccc2C1=Cc1c[nH]c2ccccc12 [(E,Z)-3-(3'-indolyl)methylene-2,1-benzisothiazoline-2,2-dioxide] | 113 µM
O=S1(=O)Nc2ccccc2C1=Cc1ccc(O)cc1 [(E,Z)-3-(4'-hydroxyphenyl)methylene-2,1-benzisothiazoline-2,2-dioxide] | 17 µM
O=C1NC(=O)c2ccccc2C1=Cc1ccc(O)cc1 [(E,Z)-4-(4'-hydroxyphenyl)methylenehomophthalimide] | 5 µM
